Source: patent publication US8613927B2, “High affinity human antibodies to human nerve growth factor” (Regeneron Pharmaceuticals, Inc., priority 2007, dated 2013)

Assays:
C57BL/6 male mice = test: Seltzer model of neuropathic pain, Hargreaves' test; type: in vivo, mouse
Excerpt: Neuropathic pain. The mouse Seltzer model of neuropathic pain (Malmberg et al. (1998) Pain 76:215-222) was used with C57BL/6 male mice, in which a partial nerve injury was produced by tying a tight ligature with a 7-0 silk suture around approximately ⅓ to ½ the diameter of the sciatic nerve of one single thigh per mouse. Post-surgery, the mice were allowed to recover for at least two days and then they were studied for several weeks post-surgery for thermal hyperalgesia in the Hargreaves' test. Controls were sham-operated mice in which the sciatic nerve was exposed and elevated but not tied. Following surgery, the mice were tested at day […] and at day 7 post-surgery to confirm that the thermal hyperalgesia had developed.
Following the Seltzer surgery, mice were tested at days 5 and 7 post-surgery to confirm that the thermal hyperalgesia had developed.

[1] = target: T1, human NT-3 binding to human TrkC-hFc (Homo sapiens, UniProt P20783); test: BIACORE, NT-3 binding to TrkC-hFc surface in presence of antibody; settings: 20 nM NT-3 + 500 nM sample; normalized to IgG1 control
T1 sequence (P20783 139-257): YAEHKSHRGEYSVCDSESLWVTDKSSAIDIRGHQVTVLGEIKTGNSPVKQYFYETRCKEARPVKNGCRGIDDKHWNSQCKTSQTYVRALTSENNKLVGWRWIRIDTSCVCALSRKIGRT
Description: (§1) Human TrkA-hFc (9300 RU), human TrkB-hFc (6000 RU), human TrkC-hFc (9100 RU) and human p75-hFc (7500 RU) were covalently coupled to BIACORE® CM5 chip surfaces by amine-coupling procedure. […] The binding mixture was first incubated at room temperature to reach equilibrium (about 1 hr) and then was injected over the above TrkA-hFc, TrkB-hFc, TrkC-hFc and p75-hFc surfaces. The level of human NT-3 binding in each sample was measured. The binding RU from each sample mixture was normalized according to the RU value from the negative control sample (i.e., 20 nM human NT-3 with 500 nM AVASTIN®) and presented as % binding to Trk surfaces (Table 9).

[2] = target: T2, human NT-3 binding to human TrkB-hFc (Homo sapiens, UniProt P20783); test: BIACORE, NT-3 binding to TrkB-hFc surface in presence of antibody; settings: 20 nM NT-3 + 500 nM sample; normalized to IgG1 control
T2 sequence (P20783 139-257): T1 sequence (P20783 139-257)
Description: as §1

## IgG1 Control: negative binding control, IgG1 control (AVASTIN®; Genentech, CA)
C57BL/6 male mice; Table 24, injected Day 7, Day 35
  mean percent change from Hargreaves baseline: −43.9 ± 6.8%
C57BL/6 male mice; Table 24, injected Day 7, Day 42
  mean percent change from Hargreaves baseline: −35.0 ± 6.6%
C57BL/6 male mice; Table 24, injected Day 14, Day 5 after surgery
  mean percent change from Hargreaves baseline: −60.0 ± 4.8%
C57BL/6 male mice; Table 24, injected Day 14, Day 7
  mean percent change from Hargreaves baseline: −54.4 ± 6.4%
C57BL/6 male mice; Table 24, injected Day 14, Day 8
  mean percent change from Hargreaves baseline: −55.3 ± 6.1%
C57BL/6 male mice; Table 24, injected Day 14, Day 10
  mean percent change from Hargreaves baseline: −52.8 ± 7.2%
C57BL/6 male mice; Table 24, injected Day 14, Day 14
  mean percent change from Hargreaves baseline: −62.1 ± 5.7%
C57BL/6 male mice; Table 24, injected Day 14, Day 15
  mean percent change from Hargreaves baseline: −63.0 ± 5.8%
C57BL/6 male mice; Table 24, injected Day 14, Day 17
  mean percent change from Hargreaves baseline: −58.6 ± 5.7%
C57BL/6 male mice; Table 24, injected Day 14, Day 21
  mean percent change from Hargreaves baseline: −57.1 ± 4.4%
C57BL/6 male mice; Table 24, injected Day 14, Day 24
  mean percent change from Hargreaves baseline: −49.5 ± 6.6%
C57BL/6 male mice; Table 24, injected Day 14, Day 28
  mean percent change from Hargreaves baseline: −53.6 ± 5.4%
C57BL/6 male mice; Table 24, injected Day 14, Day 32
  mean percent change from Hargreaves baseline: −40.9 ± 13.1%
C57BL/6 male mice; Table 24, injected Day 14, Day 35
  mean percent change from Hargreaves baseline: −42.9 ± 10.3%
C57BL/6 male mice; Table 24, injected Day 14, Day 39
  mean percent change from Hargreaves baseline: −39.0 ± 11.4%
C57BL/6 male mice; Table 24, injected Day 14, Day 42
  mean percent change from Hargreaves baseline: −38.1 ± 12.5%
C57BL/6 male mice; Table 24, injected Day 21, Day 5 after surgery
  mean percent change from Hargreaves baseline: −55.5 ± 5.0%
C57BL/6 male mice; Table 24, injected Day 21, Day 7
  mean percent change from Hargreaves baseline: −47.2 ± 4.8%
C57BL/6 male mice; Table 24, injected Day 21, Day 8
  mean percent change from Hargreaves baseline: −47.9 ± 4.7%
C57BL/6 male mice; Table 24, injected Day 21, Day 10
  mean percent change from Hargreaves baseline: −55.0 ± 6.7%
C57BL/6 male mice; Table 24, injected Day 21, Day 14
  mean percent change from Hargreaves baseline: −63.8 ± 4.6%
C57BL/6 male mice; Table 24, injected Day 21, Day 15
  mean percent change from Hargreaves baseline: −54.5 ± 5.0%
C57BL/6 male mice; Table 24, injected Day 21, Day 17
  mean percent change from Hargreaves baseline: −52.4 ± 5.3%
C57BL/6 male mice; Table 24, injected Day 21, Day 21
  mean percent change from Hargreaves baseline: −55.8 ± 3.6%
C57BL/6 male mice; Table 24, injected Day 21, Day 22
  mean percent change from Hargreaves baseline: −50.6 ± 5.3%
C57BL/6 male mice; Table 24, injected Day 21, Day 24
  mean percent change from Hargreaves baseline: −44.7 ± 5.7%
C57BL/6 male mice; Table 24, injected Day 21, Day 28
  mean percent change from Hargreaves baseline: −46.0 ± 7.6%
C57BL/6 male mice; Table 24, injected Day 21, Day 32
  mean percent change from Hargreaves baseline: −32.8 ± 4.8%
C57BL/6 male mice; Table 24, injected Day 21, Day 35
  mean percent change from Hargreaves baseline: −39.8 ± 4.5%
C57BL/6 male mice; Table 24, injected Day 21, Day 39
  mean percent change from Hargreaves baseline: −34.6 ± 10.0%
C57BL/6 male mice; Table 24, injected Day 21, Day 42
  mean percent change from Hargreaves baseline: −33.9 ± 9.9%
C57BL/6 male mice; Table 25, 50 mg/kg s.c. at day 7, day 5 after surgery
  mean percent change from Hargreaves baseline: −51.2 ± 5.2%
C57BL/6 male mice; Table 25, 50 mg/kg s.c. at day 7, day 7
  mean percent change from Hargreaves baseline: −47.6 ± 3.9%
C57BL/6 male mice; Table 25, 50 mg/kg s.c. at day 7, day 9
  mean percent change from Hargreaves baseline: −36.7 ± 14.6%
C57BL/6 male mice; Table 25, 50 mg/kg s.c. at day 7, day 12
  mean percent change from Hargreaves baseline: −47.2 ± 5.5%
C57BL/6 male mice; Table 25, 50 mg/kg s.c. at day 7, day 15
  mean percent change from Hargreaves baseline: −46.7 ± 8.5%
C57BL/6 male mice; Table 25, 50 mg/kg s.c. at day 7, day 19
  mean percent change from Hargreaves baseline: −28.6 ± 7.5%
C57BL/6 male mice; Table 25, 50 mg/kg s.c. at day 7, day 22
  mean percent change from Hargreaves baseline: −34.9 ± 7.9%
C57BL/6 male mice; Table 25, 50 mg/kg s.c. at day 7 post-surgery, Baseline
  mean percent change from Hargreaves baseline: 0.0 ± 0.0%
C57BL/6 male mice; Table 26, 50 mg/kg i.p. at day 7, day 5 after surgery
  mean percent change from Hargreaves baseline: −55.5 ± 3.8%
C57BL/6 male mice; Table 26, 50 mg/kg i.p. at day 7, day 7
  mean percent change from Hargreaves baseline: −61.6 ± 1.8%
C57BL/6 male mice; Table 26, 50 mg/kg i.p. at day 7, day 8
  mean percent change from Hargreaves baseline: −59.3 ± 4.0%
C57BL/6 male mice; Table 26, 50 mg/kg i.p. at day 7, day 9
  mean percent change from Hargreaves baseline: −51.0 ± 4.2%
C57BL/6 male mice; Table 26, 50 mg/kg i.p. at day 7, day 12
  mean percent change from Hargreaves baseline: −46.5 ± 6.3%
C57BL/6 male mice; Table 26, 50 mg/kg i.p. at day 7, day 15
  mean percent change from Hargreaves baseline: −43.3 ± 6.6%
C57BL/6 male mice; Table 26, 50 mg/kg i.p. at day 7 post-surgery, Baseline
  mean percent change from Hargreaves baseline: 0.0 ± 0.0%
[1]
  % binding to TrkC-hFc surface: 100%
[2]
  % binding to TrkB-hFc surface: 100%
